Results on five compounds are retold here after patent US9320803B2 (priority 2011, dated 2016).

SMILES strings stand for the structures.

The conditions of data set [1]: pH 5.0; cited from earlier work.
A short description of data set [2]: Binding studies to hydroxyapatite. As to conditions: pH 7.4, 37° C., 300 μM, hydroxyapatite 30 eq. On the procedure: General procedure: In a falcon tube, the test compound was diluted in phosphate-buffer (4 mM Na2HPO4 containing 150 mM NaCl, pH 7.4) to obtain a solution with a concentration of 300 μM. Hydroxyapatite (30 eq) was added and the suspension was stirred well and incubated at 37° C. Another solution of the samples without hydroxyapatite was used as control. […] (4000 rpm, duration: 60 sec, Heraeus® Megafuge® 1.0) and the absorbance of the supernatant was measured with a spectrophotometer at a wavelength of 495 nm (ε495(doxorubicin)=10 650 M^−1 cm^−1). Each result represents the arithmetic average of three measurements and percent HA binding was calculated.

The nature of data set [3]: Acid cleavage study of compound 14 (HPLC). The format is physicochemical. As to conditions: pH 3.8 (phosphoric acid added), after 5 min at room temperature, 300 μM, reverse phase HPLC. On the procedure: 1 mL of a 300 μM solution of 14 in 50 mM sodium phosphate buffer was prepared and a 50 μL sample was analyzed by reverse phase HPLC (see FIG. 1A). To 400 μL of this solution was added 4 μL concentrated phosphoric acid resulting in a pH value of 3.8.

The next data set concerns the target T1, cathepsin B (Homo sapiens, UniProt P07858).
T1 construct: purchased Calbiochem, Germany
The data set is described as follows: Cleavage studies with cathepsin B (HPLC). The format is biochemical. On the procedure: For cleavage of 16 with cathepsin B, 150 μL of a 50 mM sodium acetate buffer containing 100 mM NaCl, 4 mM EDTA Na2 and 0.15 mg L-cysteine (pH 5.0). 6.7 μL cathepsin B solution (23.8 U/mg, from Calbiochem, Germany) were added to a 100 μL solution of 16 (300 μM in 50 mM sodium phosphate buffer, pH 7.0) and the solution incubated for 1 h at 37° C.
HPLC was carried out with a Symmetry300, C18, 5 μm (4.6×250 mm) HPLC using 15% acetonitrile and 85% 20 mM sodium phosphate buffer (pH 7.0) as mobile phase A and 30% acetonitrile and 70% 20 mM sodium phosphate buffer (pH 7.0) as mobile phase B. The gradient was 0 to 1.5 min 100% phase A, 1.5 to 20 min to 100% B, 20 min to 45 min 100% B, 45 to 55 min to 100% A. Flow 1 mL/min; injection volume: 50 μL.
A 176 μL stock solution of compound 23 [1.5 mM] was diluted with 9 μL cathepsin B (0.4 mg/mL, 23.8 U/mg, from Calbiochem, Germany) and 264 μL of buffer (50 mM sodium acetate, 100 mM NaCl, 4 mM EDTA, pH 5.0) containing L-cysteine (8 mM). The mixture was incubated at 37° C. and aliquots (65 μL) were taken after 0 min, 20 min, 40 min, 60 min and 120 min and analyzed by HPLC. […]

Data set [4] in a line: Binding studies to native bone matrix. On the set-up: species or system bovine. The note with it: after 4 h, pH 7.4, 37° C., 300 μM, about 50 mg bone piece. On the procedure:
For this binding assay, bovine bone fragments were cut into small pieces (6 mm×4 mm×1 mm). The bone pieces were left untreated, washed with water (bidest.) and with absolute ethanol and dried over night at room temperature. Then, in a falcon tube the prodrugs were dissolved in phosphate-buffer (4 mM Na2HPO4 containing 150 mM NaCl, pH 7.4) to obtain a concentration of 300 μM. Approximately 50 mg of an untreated bone piece was added to the clear red solution, and the samples were incubated under stirring at 37° C. After 4 h, the samples were centrifuged (4000 rpm, duration: 60 sec, Heraeus® Megafuge® 1.0), and the absorbance of the supernatant was measured with a spectrophotometer at a wavelength of 495 nm (ε495(doxorubicin)=10650 M^−1 cm^−1). Percent bone binding was calculated

As for `COc1cccc2c1C(=O)c1c(O)c3c(c(O)c1C2=O)C[C@@](O)(/C(CO)=N/NC(=O)CCCCCN1C(=O)C=CC1=O)C[C@@H]3O[C@H]1C[C@H](N)[C@H](O)[C@H](C)O1` [DOXO-EMCH, 6-maleimidocaproylhydazone derivative of doxorubicin], the “acid-sensitive cleavage releasing doxorubicin” value in data set [1] was “cleavable at pH 5.0”.

Consider `COc1cccc2c1C(=O)c1c(O)c3c(c(O)c1C2=O)C[C@@](O)(/C(CO)=N/NC(=O)CCCCCN1C(=O)CC(SCCCSCC(P(=O)(O)O)P(=O)(O)O)C1=O)C[C@@H]3OC1C[C@@H](N)[C@@H](O)[C@@H](C)O1` (stereo partly shown) [compound 14], for which the “percent HA binding” value in data set [2] (after 5 h) is listed as ~80%; in data set [2] (after one hour), “approximately 50%”. For the same compound, in data set [3], the cleavage to doxorubicin entry is “rapid cleavage to doxorubicin”.

As to `COc1cccc2c1C(=O)c1c(O)c3c(c(O)c1C2=O)C[C@@](O)(C(=O)CO)CC3O[C@H]1C[C@H](NC(=O)OCc2ccc(NC(=O)C(CCCCN)NC(=O)C(Cc3ccccc3)NC(=O)CCCCCN3C(=O)CC(SCCCSCC(P(=O)(O)O)P(=O)(O)O)C3=O)cc2)[C@H](O)[C@H](C)O1` (stereo partly shown) [compound 16], the “cleavage to doxorubicin by cathepsin B” value on cathepsin B (incubation 1 h at 37° C., buffer pH 5.0, reverse phase HPLC) is on record as “complete cleavage to doxorubicin”.

Turning to `COc1cccc2c1C(=O)c1c(O)c3c(c(O)c1C2=O)C[C@@](O)(C(=O)CO)CC3O[C@H]1C[C@H](NC(=O)OCc2ccc(NC(=O)[C@H](C)NC(=O)[C@@H](NC(=O)CCCCCN3C(=O)CC(SCCCSCC(P(=O)(O)O)P(=O)(O)O)C3=O)C(C)C)cc2)[C@H](O)[C@H](C)O1` (stereo partly shown) [compound 23], the “percent HA binding” value in data set [2] (after 5 h) is on record as “over 90%”; in data set [2] (after 24 h), ~100%; in data set [2] (after one hour), “approximately 50%”. Further, on cathepsin B (incubation 2 h at 37° C., pH 5.0, reversed phase HPLC), the “cleavage to doxorubicin by cathepsin B” value is reported as “complete cleavage to doxorubicin”.

For `COc1cccc2c1C(=O)c1c(O)c3c(c(O)c1C2=O)C[C@@](O)(C(=O)CO)C[C@@H]3O[C@H]1C[C@H](N)[C@H](O)[C@H](C)O1` [doxorubicin], in data set [4], the percent bone binding result is listed as “no binding”.
